Values after ≈ are worked out from the molar mass of the structure shown.
Tests used:
[1] = Octanol-water partition coefficient, logD of the compound at pH 7.4 by shake-flask method; type: physicochemical
[2] = Inhibition of Mycobacterium tuberculosis H37Rv DNA gyrase A2B2 holoenzyme supercoiling activity using relaxed pBR322 substrate incubated for 90 mins by ethidium bromide staining based gel electrophoresis method
[3] = tested on: Mycobacterium tuberculosis; assay: Antimicrobial activity against Mycobacterium tuberculosis H37Rv ATCC 27294; type: functional
[4] = molecular target: Voltage-gated inwardly rectifying potassium channel KCNH2 (Homo sapiens, UniProt Q12809)
Voltage-gated inwardly rectifying potassium channel KCNH2, sequence (Q12809 whole entry): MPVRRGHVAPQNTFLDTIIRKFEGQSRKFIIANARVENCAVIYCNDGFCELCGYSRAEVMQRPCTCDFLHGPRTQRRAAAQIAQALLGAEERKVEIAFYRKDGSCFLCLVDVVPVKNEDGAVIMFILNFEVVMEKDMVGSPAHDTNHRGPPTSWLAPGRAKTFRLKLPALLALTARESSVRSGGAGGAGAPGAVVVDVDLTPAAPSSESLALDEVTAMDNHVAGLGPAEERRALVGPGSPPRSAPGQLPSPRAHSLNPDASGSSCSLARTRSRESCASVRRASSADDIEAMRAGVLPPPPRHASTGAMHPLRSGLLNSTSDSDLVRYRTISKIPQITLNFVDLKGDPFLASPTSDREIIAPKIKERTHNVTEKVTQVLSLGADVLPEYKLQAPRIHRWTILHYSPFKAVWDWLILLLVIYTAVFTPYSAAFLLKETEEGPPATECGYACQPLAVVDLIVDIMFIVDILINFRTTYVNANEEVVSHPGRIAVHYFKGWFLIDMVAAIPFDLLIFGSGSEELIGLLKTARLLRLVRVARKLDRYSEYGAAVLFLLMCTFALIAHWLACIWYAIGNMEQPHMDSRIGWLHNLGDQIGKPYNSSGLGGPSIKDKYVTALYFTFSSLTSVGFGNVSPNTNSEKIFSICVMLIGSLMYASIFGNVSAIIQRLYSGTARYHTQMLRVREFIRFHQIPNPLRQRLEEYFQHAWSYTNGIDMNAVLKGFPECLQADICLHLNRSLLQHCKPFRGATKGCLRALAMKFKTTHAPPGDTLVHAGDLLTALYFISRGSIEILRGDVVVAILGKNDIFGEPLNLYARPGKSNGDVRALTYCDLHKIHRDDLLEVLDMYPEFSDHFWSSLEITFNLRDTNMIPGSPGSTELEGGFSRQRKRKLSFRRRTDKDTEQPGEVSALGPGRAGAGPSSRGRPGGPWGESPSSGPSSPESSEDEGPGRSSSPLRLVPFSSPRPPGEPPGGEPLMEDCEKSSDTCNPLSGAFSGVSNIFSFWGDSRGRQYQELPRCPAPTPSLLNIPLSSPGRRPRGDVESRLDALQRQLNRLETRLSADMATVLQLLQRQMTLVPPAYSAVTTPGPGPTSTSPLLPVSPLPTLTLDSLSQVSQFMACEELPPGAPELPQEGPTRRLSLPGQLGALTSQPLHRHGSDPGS
Description: Inhibition of human ERG by electrophysiology assay

THP-1 = assay: Cytotoxicity against human THP1 cells; type: cell-based
DNA gyrase subunit B = DNA gyrase subunit B (Mycobacterium smegmatis, UniProt P0C559); assay: Inhibition of Mycobacterium smegmatis GyrB ATPase activity; set-up: species or system Mycolicibacterium smegmatis
DNA gyrase subunit B, sequence (P0C559 whole entry): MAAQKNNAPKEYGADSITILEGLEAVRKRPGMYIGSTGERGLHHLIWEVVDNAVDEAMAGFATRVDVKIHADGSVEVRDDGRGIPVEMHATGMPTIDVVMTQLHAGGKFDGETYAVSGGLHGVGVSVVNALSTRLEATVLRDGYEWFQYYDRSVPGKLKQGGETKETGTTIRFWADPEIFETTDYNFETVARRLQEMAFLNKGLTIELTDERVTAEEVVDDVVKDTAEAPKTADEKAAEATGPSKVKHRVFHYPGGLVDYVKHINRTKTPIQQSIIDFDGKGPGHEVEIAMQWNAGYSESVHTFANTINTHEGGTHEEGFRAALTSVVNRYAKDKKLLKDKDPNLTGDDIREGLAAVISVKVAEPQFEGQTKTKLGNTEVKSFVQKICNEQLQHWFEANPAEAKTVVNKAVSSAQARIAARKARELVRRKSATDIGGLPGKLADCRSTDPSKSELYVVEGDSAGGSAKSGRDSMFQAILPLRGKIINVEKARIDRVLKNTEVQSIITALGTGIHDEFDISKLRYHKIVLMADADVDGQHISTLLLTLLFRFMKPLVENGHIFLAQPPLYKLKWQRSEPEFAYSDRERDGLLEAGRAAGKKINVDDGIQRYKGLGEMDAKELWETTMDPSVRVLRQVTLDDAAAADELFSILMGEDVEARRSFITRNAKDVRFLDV

[5] = Volume of distribution at steady state in Wistar rat at 1 mg/kg, iv; type: ADME, organism-based; set-up: dose 1 mg/kg, route intravenous; details: in vivo, read-out: Vdss
[6] = AUC (0 to infinity) in Wistar rat at 1 mg/kg, iv; type: ADME, organism-based; set-up: time infinity, dose 1 mg/kg, route intravenous; details: plasma
[7] = Permeability from basolateral to apical side in human Caco2 cells; type: ADME, cell-based; details: Caco-2, read-out: permeability
Cytochrome P450 2D6 = Cytochrome P450 2D6 (Homo sapiens, UniProt P10635); assay: Inhibition of CYP2D6 (unknown origin); type: ADME
Cytochrome P450 2D6, sequence (P10635 whole entry): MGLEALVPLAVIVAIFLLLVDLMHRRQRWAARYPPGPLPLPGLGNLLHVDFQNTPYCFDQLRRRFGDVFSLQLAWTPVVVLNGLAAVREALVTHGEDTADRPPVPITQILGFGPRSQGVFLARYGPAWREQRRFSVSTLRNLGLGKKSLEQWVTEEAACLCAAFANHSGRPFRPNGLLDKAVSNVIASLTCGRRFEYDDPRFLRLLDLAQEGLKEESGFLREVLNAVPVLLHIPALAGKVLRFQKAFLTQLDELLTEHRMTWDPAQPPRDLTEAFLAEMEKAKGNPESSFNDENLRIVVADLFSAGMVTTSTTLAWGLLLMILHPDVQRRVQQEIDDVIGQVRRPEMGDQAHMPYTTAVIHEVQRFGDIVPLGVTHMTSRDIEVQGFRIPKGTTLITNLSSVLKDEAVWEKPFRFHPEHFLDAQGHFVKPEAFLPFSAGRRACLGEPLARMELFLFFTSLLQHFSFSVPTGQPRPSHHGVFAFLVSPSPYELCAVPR

Cytochrome P450 2C19 = Cytochrome P450 2C19 (Homo sapiens, UniProt P33261); assay: Inhibition of CYP2C19 (unknown origin); type: ADME
Cytochrome P450 2C19, sequence (P33261 whole entry): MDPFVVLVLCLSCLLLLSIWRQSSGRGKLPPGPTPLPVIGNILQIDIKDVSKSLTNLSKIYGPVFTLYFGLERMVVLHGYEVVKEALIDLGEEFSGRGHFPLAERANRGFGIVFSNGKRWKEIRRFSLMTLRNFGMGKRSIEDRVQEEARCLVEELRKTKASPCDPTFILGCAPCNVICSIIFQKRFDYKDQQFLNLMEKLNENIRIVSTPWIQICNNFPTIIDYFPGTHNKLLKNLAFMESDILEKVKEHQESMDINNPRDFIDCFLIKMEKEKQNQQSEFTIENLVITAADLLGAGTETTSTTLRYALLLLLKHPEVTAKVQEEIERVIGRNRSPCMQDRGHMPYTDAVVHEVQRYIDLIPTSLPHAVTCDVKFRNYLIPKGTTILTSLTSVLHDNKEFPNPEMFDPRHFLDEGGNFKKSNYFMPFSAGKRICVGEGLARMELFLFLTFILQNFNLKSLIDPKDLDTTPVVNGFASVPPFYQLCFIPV

[8] = AUC (0 to infinity) in Wistar rat at 10 mg/kg, po; type: ADME, organism-based; set-up: time infinity, dose 10 mg/kg, route oral; details: plasma
Cytochrome P450 3A4 = Cytochrome P450 3A4 (Homo sapiens, UniProt P08684); assay: Inhibition of CYP3A4 (unknown origin); type: ADME
Cytochrome P450 3A4, sequence (P08684 whole entry): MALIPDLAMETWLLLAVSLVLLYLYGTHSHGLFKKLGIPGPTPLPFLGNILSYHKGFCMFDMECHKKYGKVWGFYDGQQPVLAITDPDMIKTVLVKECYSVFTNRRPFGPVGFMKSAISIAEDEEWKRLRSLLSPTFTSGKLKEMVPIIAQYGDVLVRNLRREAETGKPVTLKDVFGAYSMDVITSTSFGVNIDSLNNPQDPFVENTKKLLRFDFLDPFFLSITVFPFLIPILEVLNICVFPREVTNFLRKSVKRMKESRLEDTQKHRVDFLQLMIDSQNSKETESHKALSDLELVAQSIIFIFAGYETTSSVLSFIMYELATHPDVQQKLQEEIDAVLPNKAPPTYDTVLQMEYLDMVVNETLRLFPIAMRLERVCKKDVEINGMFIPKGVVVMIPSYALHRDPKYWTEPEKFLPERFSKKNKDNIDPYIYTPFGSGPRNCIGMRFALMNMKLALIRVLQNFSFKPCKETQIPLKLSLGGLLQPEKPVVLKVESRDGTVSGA

[9] = Clearance in Wistar rat at 1 mg/kg, iv; type: ADME, organism-based; set-up: dose 1 mg/kg, route intravenous; details: in vivo
Cytochrome P450 2C9 = Cytochrome P450 2C9 (Homo sapiens, UniProt P11712); assay: Inhibition of CYP2C9 (unknown origin); type: ADME
Cytochrome P450 2C9, sequence (P11712 whole entry): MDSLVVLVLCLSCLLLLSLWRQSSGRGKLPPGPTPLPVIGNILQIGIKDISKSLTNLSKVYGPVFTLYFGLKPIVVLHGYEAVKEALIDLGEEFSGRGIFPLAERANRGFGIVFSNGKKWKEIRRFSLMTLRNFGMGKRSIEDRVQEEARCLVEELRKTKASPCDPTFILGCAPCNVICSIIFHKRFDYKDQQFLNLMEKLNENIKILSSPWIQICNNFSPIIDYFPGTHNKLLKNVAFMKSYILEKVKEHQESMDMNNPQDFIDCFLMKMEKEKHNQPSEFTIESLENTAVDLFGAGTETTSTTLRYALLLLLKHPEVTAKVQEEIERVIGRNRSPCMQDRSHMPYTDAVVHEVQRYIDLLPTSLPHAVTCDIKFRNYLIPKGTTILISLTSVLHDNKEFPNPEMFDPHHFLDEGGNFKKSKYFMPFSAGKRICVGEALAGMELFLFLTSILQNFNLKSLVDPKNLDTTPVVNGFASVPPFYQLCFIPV

[10] = Elimination half life in Wistar rat at 1 mg/kg, iv; type: ADME, organism-based; set-up: dose 1 mg/kg, route intravenous; details: in vivo, read-out: beta t1/2 (converted)
[11] = Oral bioavailability in Wistar rat at 10 mg/kg; type: ADME, organism-based; details: in vivo
Cytochrome P450 1A2 = molecular target: T1, Cytochrome P450 1A2 (Homo sapiens, UniProt P05177); assay: Inhibition of CYP1A2 (unknown origin); type: ADME
T1 sequence (P05177 whole entry): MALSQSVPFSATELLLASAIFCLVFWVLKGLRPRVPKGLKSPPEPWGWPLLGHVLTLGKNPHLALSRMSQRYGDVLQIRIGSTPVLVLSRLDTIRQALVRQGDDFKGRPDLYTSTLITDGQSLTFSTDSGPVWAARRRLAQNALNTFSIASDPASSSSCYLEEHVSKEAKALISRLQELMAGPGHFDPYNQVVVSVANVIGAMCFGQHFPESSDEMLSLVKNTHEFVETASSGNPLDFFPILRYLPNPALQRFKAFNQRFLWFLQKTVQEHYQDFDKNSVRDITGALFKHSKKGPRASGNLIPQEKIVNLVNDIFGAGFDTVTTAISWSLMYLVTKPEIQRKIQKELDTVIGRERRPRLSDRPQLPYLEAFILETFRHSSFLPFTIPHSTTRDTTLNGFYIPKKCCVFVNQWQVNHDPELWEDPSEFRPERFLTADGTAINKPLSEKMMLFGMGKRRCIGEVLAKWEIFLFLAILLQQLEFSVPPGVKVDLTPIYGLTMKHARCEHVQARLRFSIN

[12] = Solubility of the compound; type: physicochemical
[13] = Permeability from apical to basolateral side in human Caco2 cells; type: ADME, cell-based; details: Caco-2, read-out: permeability

SMILES	logD [1]	MIC [3]	IC50 [4]	further results
NS(=O)(=O)c1ccc(Oc2cnc3ccc(=O)n(CCN4CCC(c5nc6cc(C(F)(F)F)ccc6[nH]5)CC4)c3c2)cc1	2.4	0.19 µM (≈ 0.116 µg/mL)	> 33 µM	IC50 [2]: 1.9 µM
COc1cnc2ccc(=O)n(CCN3CCC(c4nc5cc(C(F)(F)F)ccc5[nH]4)CC3)c2c1	4	0.19 µM (≈ 0.0896 µg/mL)		IC50 (THP-1): > 50 µM; IC50 (DNA gyrase subunit B): > 100 µM
O=c1ccc2ncc(F)cc2n1CCN1CCC(c2nc3cc(C(F)(F)F)ccc3[nH]2)CC1		0.78 µM (≈ 0.358 µg/mL)		
COc1cnc2ccc(=O)n(CCN3CCC(C4C(=O)Nc5ccc(Cl)cc54)CC3)c2c1 (stereo not drawn)	2.8	100 µM (≈ 45.3 µg/mL)	4.8 µM	IC50 (THP-1): > 50 µM; IC50 (DNA gyrase subunit B): > 100 µM; IC50 [2]: > 50 µM
COc1cnc2ccc(=O)n(CCN3CCC(c4c[nH]c5cc(C(F)(F)F)ccc45)CC3)c2c1	4	50 µM (≈ 23.5 µg/mL)		IC50 (THP-1): > 50 µM; IC50 (DNA gyrase subunit B): > 100 µM; IC50 [2]: > 50 µM
O=c1ccc2ncc(F)cc2n1CCN1CCN(c2nc3cc(C(F)(F)F)ccc3[nH]2)CC1	3.7	15 µM (≈ 6.91 µg/mL)		
COc1cnc2ccc(=O)n(CCN3CCC(c4nc5cc(Cl)c(C)cc5[nH]4)CC3)c2c1	3.8	0.13 µM (≈ 0.0588 µg/mL)		
N#Cc1ccc2[nH]c(C3CCN(CCn4c(=O)ccc5ncc(F)cc54)CC3)nc2c1		50 µM (≈ 20.8 µg/mL)		
O=C(O)c1cn(C2CC2)c2cc(N3CCNCC3)c(F)cc2c1=O [CIPROFLOXACIN]		0.5 µM (≈ 0.166 µg/mL)		
COc1cnc2ccc(=O)n(CCN3CCC(c4nc5cc(Cl)ccc5[nH]4)CC3)c2c1	3.6	0.25 µM (≈ 0.109 µg/mL)		
COc1cnc2ccc(=O)n(CCN3CCC(c4c[nH]c5ccc(C#N)cc45)CC3)c2c1	3.3	100 µM (≈ 42.8 µg/mL)	2 µM	IC50 (THP-1): > 50 µM; IC50 (DNA gyrase subunit B): > 100 µM; IC50 [2]: > 50 µM
COc1cnc2ccc(=O)n(CCN3CCC(c4nc5cc(Cl)c(F)cc5[nH]4)CC3)c2c1	4	0.06 µM (≈ 0.0274 µg/mL)		IC50 [2]: 2 µM
N#Cc1ccc2ccc(=O)n(CCN3CCC(NCc4ccc5c(n4)NC(=O)CO5)CC3)c2c1		0.19 µM (≈ 0.0871 µg/mL)		IC50 [2]: 0.11 µM
Cc1cc2[nH]c(C3CCN(CCn4c(=O)ccc5ncc(F)cc54)CC3)nc2cc1Cl	3.7	1.56 µM (≈ 0.686 µg/mL)	1.2 µM	
COc1cnc2ccc(=O)n(CCN3CCC(c4nc5cc(C#N)c(C)cc5[nH]4)CC3)c2c1	2.8	0.19 µM (≈ 0.0841 µg/mL)		Vd [5]: 1.01 L/kg; AUC(0-inf) [6]: 470 ng·h/mL; Papp B→A [7]: 28.1 ×10⁻⁶ cm/s; IC50 (Cytochrome P450 2D6): 28 µM; IC50 (Cytochrome P450 2C19): > 30 µM; AUC(0-inf) [8]: 20 ng·h/mL; IC50 (Cytochrome P450 3A4): 9.4 µM; clearance [9]: 35.5 mL/min/kg; IC50 (Cytochrome P450 2C9): > 30 µM; half-life [10]: 36 min; bioavailability [11]: 1.1%; IC50 [2]: 4.3 µM; IC50 (Cytochrome P450 1A2): > 30 µM; solubility [12]: 2.1 µM (≈ 0.929 µg/mL); Papp A→B [13]: 0.4 ×10⁻⁶ cm/s
COc1cnc2ncc(=O)n(CCN3CCC(c4nc5cc(Cl)c(C)cc5[nH]4)CC3)c2c1	3.5	0.39 µM (≈ 0.177 µg/mL)	10 µM	
NNC(=O)c1ccncc1 [ISONIAZID]		0.06 µM (≈ 0.00823 µg/mL)		
Cc1cc2[nH]c(C3CCN(CCn4c(=O)ccc5ncc(F)cc54)CC3)nc2cc1C#N		3.15 µM (≈ 1.36 µg/mL)		
COc1cnc2ccc(=O)n(CCN3CCN(c4nc5cc(C(F)(F)F)ccc5[nH]4)CC3)c2c1	2.8	3.13 µM (≈ 1.48 µg/mL)	10 µM	
COc1c(N2C[C@@H]3CCCN[C@@H]3C2)c(F)cc2c(=O)c(C(=O)O)cn(C3CC3)c12 [MOXIFLOXACIN]		0.13 µM (≈ 0.0522 µg/mL)		
N#Cc1ccc2[nH]c(C3CCN(CCn4c(=O)ccc5ncc(Oc6cccnc6)cc54)CC3)nc2c1	2.9	3.13 µM (≈ 1.54 µg/mL)		
O=c1ccc2ncc(F)cc2n1CCN1CCC(NCc2ccc(C(F)(F)F)nc2)CC1		0.19 µM (≈ 0.0854 µg/mL)		IC50 [2]: 0.25 µM
COc1ccc2ncc(=O)n(CCN3CCC(c4nc5cc(Cl)c(C)cc5[nH]4)CC3)c2c1		0.13 µM (≈ 0.0588 µg/mL)		
N#Cc1ccc2[nH]c(C3CCN(CCn4c(=O)ccc5ncc(Oc6ccc(S(N)(=O)=O)cc6)cc54)CC3)nc2c1	2.2	0.78 µM (≈ 0.444 µg/mL)	> 33 µM	
COc1cnc2ccc(=O)n(CCN3CCN(c4nc5cc(C#N)c(C)cc5[nH]4)CC3)c2c1	3.2	0.78 µM (≈ 0.346 µg/mL)	> 33 µM	Vd [5]: 1.54 L/kg; AUC(0-inf) [6]: 520 ng·h/mL; Papp B→A [7]: 24.1 ×10⁻⁶ cm/s; IC50 (Cytochrome P450 2D6): 20 µM; IC50 (Cytochrome P450 2C19): > 30 µM; AUC(0-inf) [8]: 160 ng·h/mL; IC50 (Cytochrome P450 3A4): 20 µM; clearance [9]: 32.2 mL/min/kg; IC50 (Cytochrome P450 2C9): > 30 µM; half-life [10]: 48 min; bioavailability [11]: 3.3%; IC50 (Cytochrome P450 1A2): > 30 µM; solubility [12]: 3 µM (≈ 1.33 µg/mL); Papp A→B [13]: 1.5 ×10⁻⁶ cm/s
COc1cnc2ccc(=O)n(CCN3CCN(c4nc5ccccc5[nH]4)CC3)c2c1	2.4	100 µM (≈ 40.4 µg/mL)	7 µM	
COc1cnc2ccc(=O)n(CCN3CCC(c4nc5cc(C#N)ccc5[nH]4)CC3)c2c1	2.4	3.15 µM (≈ 1.35 µg/mL)		

Source: ChEMBL document CHEMBL3352071, “Benzimidazoles: novel mycobacterial gyrase inhibitors from scaffold morphing” (ACS Med Chem Lett, 2014)
